# Read-outs that look alike come from different tables or passages of the source.
# Assays:
# BCL2 = assay: RT-qPCR gene expression of BCL2 (ΔΔCt method, GAPDH reference) in MDA-MB-231 cells; assay type: cell-based, human; settings: versus cell control
# Excerpt: To determine whether the synthesized compounds were repressing the ER alpha protein or not, we performed gene expression analyses for Cyclin D1 and BCL2 using the real-time quantitative polymerase chain reaction (RT-qPCR). RT-qPCR is an efficient, simple, and low-cost technique to quantify gene expression levels. The delta-delta Ct (ΔΔCt) method is a widely used technique for analyzing real-time quantitative PCR (qPCR) data. We chose three compounds, 9b, 9l, and 9m, based on their lowest IC50 values and conducted gene expression studies for BCL2 and Cyclin D1. We used the GAPDH as a reference gene. […]
# A 100-picomolar primer stock was prepared utilizing primers of Cyclin D1, BCL2, and GAPDH (Table 6), which were then diluted to a 10-picomolar working stock for use in real-time PCR. RNA was extracted from four samples utilizing the PureLink RNA Mini Kit and quantified using the Biophotometer Plus (Table 3). […] Then, using the formula below (1), we determined the ΔCt from the mean Ct values of Cyclin D1 and BCL2 with reference to the reference gene’s GAPDH mean Ct values. […] The comparative Ct was used for quantification analysis, and the Ct values (Ct1, Ct2, and Ct3) were averaged.ΔCt = Ct (gene of interest) − Ct (housekeeping gene)(1)
# We calculated the ΔΔCt from the ΔCt values of the Cyclin D1 and BCL2. […]
# Vero cells = assay: MTT cytotoxicity assay on Vero cells; assay type: cell-based
# Excerpt: (§1) Vero cells are known for their ability to assess the safety of new compounds and their sensitivity to a wide range of toxic substances. MDA-MB-231 cells are derived from human […] breast cancer tissue. MDA-MB-231 cells provide a reliable method for assessing the toxicity and effectiveness of potential anticancer compounds, especially those that target estrogen receptors or associated pathways. We assessed the anticancer activity of the compounds on Vero cells and MDA-MB-231 using the MTT (3-(4,5-dimethyl thiazol-2yl)-2,5-diphenyl tetrazolium bromide) assay. The MTT assay is one of the most commonly used for cancer drug screening. This is a basic and easy assay for cytotoxicity, and it is one of the most popular cytotoxicity assays in the research laboratory. We plated cells (1 × 10^5/well) in 96-well plates using 0.2 mL of medium per well. We carefully removed the media from the wells for the MTT assay after incubation. After two to three MEM (w/o) FCS washes, 200 µL of MTT (5 mg/mL) was added to each well. We incubated the plates for 6–7 h in a 5% CO^2 incubator to test for cytotoxicity. Following the incubation, we added […] of vehicle (DMSO) to each well, mixed it thoroughly with a micropipette, and left it for 45 s. NADPH-dependent dehydrogenase catalyzes the conversion of tetrazolium salt (MTT) into a purple formazan product in cells. This indicates the presence of metabolically active cells. We placed the solution in the spectrophotometer’s cuvette and recorded the optical density at 595 nm, using DMSO as the blank reference. Measurements were conducted, and the concentration required for 50% inhibition of viability (IC50) was visually determined. A standard graph was constructed, with the drug concentration plotted on the X-axis and relative cell viability on the Y-axis. %Cell Viability=Mean Optical Density of Individual Sample/Mean Optical Density of Control×100
# MDA-MB-231 cells [1] = assay: MTT cytotoxicity assay on MDA-MB-231 cells; assay type: cell-based, human
# Excerpt: as §1
# Cyclin D1 = assay: RT-qPCR gene expression of Cyclin D1 (ΔΔCt method, GAPDH reference) in MDA-MB-231 cells; assay type: cell-based, human; settings: for Cyclin D1 ΔΔCt: versus cell control
# Excerpt: To determine whether the synthesized compounds were repressing the ER alpha protein or not, we performed gene expression analyses for Cyclin D1 and BCL2 using the real-time quantitative polymerase chain reaction (RT-qPCR). RT-qPCR is an efficient, simple, and low-cost technique to quantify gene expression levels. The delta-delta Ct (ΔΔCt) method is a widely used technique for analyzing real-time quantitative PCR (qPCR) data. We chose three compounds, 9b, 9l, and 9m, based on their lowest IC50 values and conducted gene expression studies for BCL2 and Cyclin D1. We used the GAPDH as a reference gene. We chose primer pairings with the lowest penalty value designed by the Primer Express 2.0 software to obtain the best results.
# A 100-picomolar primer stock was prepared utilizing primers of Cyclin D1, BCL2, and GAPDH (Table 6), which were then diluted to a 10-picomolar working stock for use in real-time PCR. RNA was extracted from four samples utilizing the PureLink RNA Mini Kit and quantified using the Biophotometer Plus (Table 3). A total of 1 µg of RNA was taken from the isolated RNA and used for cDNA synthesis with the Takara Prime Script 1st Strand cDNA Synthesis Kit. Each real-time PCR experiment utilized 25 ng of cDNA, 10 picomolar forward and reverse primers, and a final reaction volume of 20 µL. Cyclin D1, BCL2, and GAPDH average Ct values were extracted from each sample’s replicates. Then, using the formula below (1), we determined the ΔCt from the mean Ct values of Cyclin D1 and BCL2 with reference to the reference gene’s GAPDH mean Ct values. In the real-time qPCR, the temperature was set at 95 °C for 10 min (denaturation), then 40 cycles at 95 °C for 15 s and 60 °C for one minute. Each sample was processed in triplicate in six-well plates for the qPCR analysis using the Qiagen kit. The comparative Ct was used for quantification analysis, and the Ct values (Ct1, Ct2, and Ct3) were averaged.ΔCt = Ct (gene of interest) − Ct (housekeeping gene)(1)
# We calculated the ΔΔCt from the ΔCt values of the Cyclin D1 and BCL2. The […] were calculated using the following Formula (2).ΔΔCt = ΔCt (Sample) − ΔCt (Control)(2)
# Finally, we calculated the fold gene expression for CyclinD1 and BCL2 with reference to the reference gene GAPDH using the following Formula (3) (Table 5).Fold gene expression = 2^−ΔΔCt(3)
# MDA-MB-231 cells [2] = tested on: MDA-MB-231 cells; design: method as in PMID 24278556; settings: reference drug, reported value; cited from earlier work
SMILES,IC50 (Vero cells; Chlorocebus sabaeus),IC50 (MDA-MB-231 cells [1]; Homo sapiens),Cyclin D1 ΔΔCt (Cyclin D1),IC50 (Vero cells),IC50 (MDA-MB-231 cells [1]),also measured
Oc1c/c(=N\NC(=S)/N=C/c2ccc(Cl)cc2)oc2ccccc12 [Compound 9b],60.9 µM,14.5 µM,−0.57,–,–,BCL2 ΔΔCt (BCL2): 1.42; Relative gene expression CyclinD1 (Cyclin D1; control = 1): 1.485; Cyclin D1 2^(−ΔΔCt) (Cyclin D1; fold gene expression): 1.485
O=C(c1ccc(OCCN2CCCCC2)cc1)c1c(-c2ccc(O)cc2)sc2cc(O)ccc12 [Raloxifene],–,–,–,–,–,IC50 (MDA-MB-231 cells [2]): 13.7 µM
Oc1cc(/C=N/C(=S)N/N=c2\cc(O)c3ccccc3o2)cc(O)c1O [Compound 9n],–,–,–,119 µM,47.7 µM,–
O=[N+]([O-])c1ccc(/C=N/C(=S)N/N=c2\cc(O)c3ccccc3o2)cc1 [Compound 9l],87.7 µM,35.1 µM,2.2,–,–,–
COc1ccc(/C=N/C(=S)N/N=c2\cc(C)c3ccc(O)cc3o2)cc1 [Compound 7i],–,–,–,292 µM,237 µM,–
Oc1c/c(=N\NC(=S)/N=C/c2cccc3ccccc23)oc2ccccc12 [Compound 9c],–,–,–,87.4 µM,61.5 µM,–
Cc1c/c(=N\NC(=S)/N=C/c2ccc(Cl)cc2Cl)oc2cc(O)ccc12 [Compound 7a],–,–,–,513 µM,357 µM,–
Oc1c/c(=N\NC(=S)/N=C/c2ccc(Br)cc2)oc2ccccc12 [Compound 9m],68.7 µM,42.1 µM,2.03,–,–,BCL2 ΔΔCt (BCL2): 1.41
Cc1c/c(=N\NC(=S)/N=C/c2ccc(Br)cc2)oc2cc(O)ccc12 [Compound 7m],–,–,–,149 µM,90.5 µM,–
